Measurements taken from ChEMBL document CHEMBL3885881, “DrugMatrix”.

How the values were obtained:
Rattus norvegicus [1] = species on record: Rattus norvegicus; assay type: toxicity, organism-based, Sprague-Dawley; settings: in vivo, po, 0 mg/kg, 24 h, vehicle control, route oral GAVAGE, dose level Control, time 1 day, vehicle .5 % CMC
Description: DrugMatrix - Regimen: Single

Rattus norvegicus [2] = species on record: Rattus norvegicus; experiment: DrugMatrix - Regimen: Daily Repeat; assay type: toxicity, organism-based, Sprague-Dawley; parameters: regimen Daily Repeat, gender Male, age 6-8 weeks; settings: in vivo, po, 0 mg/kg, route oral GAVAGE, dose level Control, vehicle .5 % CMC; for ABSOLUTE BASOPHIL / ABSOLUTE EOSINOPHIL / ABSOLUTE LYMPHOCYTE / ABSOLUTE MONOCYTE / ABSOLUTE SEGMENTED NEUTROPHIL / BASOPHIL / EOSINOPHIL / ERYTHROCYTE COUNT / HEMATOCRIT / HEMOGLOBIN / LEUKOCYTE COUNT / LYMPHOCYTE / MEAN CORPUSCULAR HEMOGLOBIN / MEAN CORPUSCULAR HEMOGLOBIN CONCENTRATION / MEAN CORPUSCULAR VOLUME / MONOCYTE / NEUTROPHIL / NUCLEATED RED BLOOD CELLS / PLATELET COUNT: tissue Blood; for ALANINE AMINOTRANSFERASE / ALBUMIN / ALKALINE PHOSPHATASE / ASPARTATE AMINOTRANSFERASE / BLOOD UREA NITROGEN / CARBON DIOXIDE / CHLORIDE / CHOLESTEROL / CREATININE / GLUCOSE / LACTATE DEHYDROGENASE / LIPASE / PHOSPHORUS / POTASSIUM / SODIUM / TOTAL BILIRUBIN / TOTAL PROTEIN / URIC ACID: tissue Plasma

## ClC(Br)Br [DIBROMOCHLOROMETHANE]
Rattus norvegicus [1]; tissue Blood
  ABSOLUTE EOSINOPHIL: 150 CELLS/uL
  ABSOLUTE LYMPHOCYTE: 13279.83 CELLS/uL
  ABSOLUTE MONOCYTE: 654.5 CELLS/uL
  ABSOLUTE SEGMENTED NEUTROPHIL: 1565.67 CELLS/uL
  BASOPHIL: 0%
  EOSINOPHIL: 1%
  ERYTHROCYTE COUNT: 5.36 x10E6/uL
  HEMATOCRIT: 33.37%
  HEMOGLOBIN: 12.52 G/DL
  LEUKOCYTE COUNT: 15.65 x10E3/uL
  LYMPHOCYTE: 84.83%
  MEAN CORPUSCULAR HEMOGLOBIN: 23.4 pg
  MEAN CORPUSCULAR HEMOGLOBIN CONCENTRATION: 37.52 G/DL
  MEAN CORPUSCULAR VOLUME: 62.32 fL
  MONOCYTE: 4.17%
  NEUTROPHIL: 10%
  NUCLEATED RED BLOOD CELLS: 0 /100WBC
  PLATELET COUNT: 1020 x10E3/uL
Rattus norvegicus [1]; tissue Plasma
  ALANINE AMINOTRANSFERASE: 49 u/L
  ALBUMIN: 4.47 G/DL
  ALKALINE PHOSPHATASE: 361.17 u/L
  ASPARTATE AMINOTRANSFERASE: 78.67 u/L
  BLOOD UREA NITROGEN: 13.17 mg/dL
  CARBON DIOXIDE: 29.67 mmol/L
  CHLORIDE: 100.83 MEQ/L
  CHOLESTEROL: 82.17 mg/dL
  CREATININE: 0.15 mg/dL
  GLUCOSE: 150.83 mg/dL
  LACTATE DEHYDROGENASE: 239.17 u/L
  LIPASE: 7.83 u/L
  PHOSPHORUS: 13.82 mg/dL
  POTASSIUM: 6.62 MEQ/L
  SODIUM: 144.25 MEQ/L
  TOTAL BILIRUBIN: 0.15 mg/dL
  TOTAL PROTEIN: 6.2 G/DL
  URIC ACID: 1.57 mg/dL
Rattus norvegicus [2]; 72 h, time 3 day
  ABSOLUTE BASOPHIL: 0 CELLS/uL
  ABSOLUTE EOSINOPHIL: 279.83 CELLS/uL
  ABSOLUTE LYMPHOCYTE: 13152.5 CELLS/uL
  ABSOLUTE MONOCYTE: 1013.83 CELLS/uL
  ABSOLUTE SEGMENTED NEUTROPHIL: 2420.5 CELLS/uL
  BASOPHIL: 0%
  EOSINOPHIL: 1.67%
  ERYTHROCYTE COUNT: 5.26 x10E6/uL
  HEMATOCRIT: 32.22%
  HEMOGLOBIN: 12.02 G/DL
  LEUKOCYTE COUNT: 16.87 x10E3/uL
  LYMPHOCYTE: 77.83%
  MEAN CORPUSCULAR HEMOGLOBIN: 22.93 pg
  MEAN CORPUSCULAR HEMOGLOBIN CONCENTRATION: 37.32 G/DL
  MEAN CORPUSCULAR VOLUME: 61.4 fL
  MONOCYTE: 6%
  NEUTROPHIL: 14.5%
  NUCLEATED RED BLOOD CELLS: 0 /100WBC
  PLATELET COUNT: 1122.17 x10E3/uL
  ALANINE AMINOTRANSFERASE: 55.67 u/L
  ALBUMIN: 4.35 G/DL
  ALKALINE PHOSPHATASE: 362.67 u/L
  ASPARTATE AMINOTRANSFERASE: 96 u/L
  BLOOD UREA NITROGEN: 18 mg/dL
  CARBON DIOXIDE: 27.5 mmol/L
  CHLORIDE: 100.17 MEQ/L
  CHOLESTEROL: 74.5 mg/dL
  CREATININE: 0.17 mg/dL
  GLUCOSE: 141.67 mg/dL
  LACTATE DEHYDROGENASE: 682.5 u/L
  LIPASE: 10 u/L
  PHOSPHORUS: 11.5 mg/dL
  POTASSIUM: 6.41 MEQ/L
  SODIUM: 141.2 MEQ/L
  TOTAL BILIRUBIN: 0.18 mg/dL
  TOTAL PROTEIN: 5.88 G/DL
  URIC ACID: 1.4 mg/dL
Rattus norvegicus [2]; 120 h, time 5 day
  ABSOLUTE BASOPHIL: 0 CELLS/uL
  ABSOLUTE EOSINOPHIL: 18.5 CELLS/uL
  ABSOLUTE LYMPHOCYTE: 8146.83 CELLS/uL
  ABSOLUTE MONOCYTE: 204.83 CELLS/uL
  ABSOLUTE SEGMENTED NEUTROPHIL: 1329.83 CELLS/uL
  BASOPHIL: 0%
  EOSINOPHIL: 0.17%
  ERYTHROCYTE COUNT: 5.37 x10E6/uL
  HEMATOCRIT: 33.17%
  HEMOGLOBIN: 12.07 G/DL
  LEUKOCYTE COUNT: 9.7 x10E3/uL
  LYMPHOCYTE: 85.33%
  MEAN CORPUSCULAR HEMOGLOBIN: 22.52 pg
  MEAN CORPUSCULAR HEMOGLOBIN CONCENTRATION: 36.42 G/DL
  MEAN CORPUSCULAR VOLUME: 61.78 fL
  MONOCYTE: 1.83%
  NEUTROPHIL: 12.67%
  NUCLEATED RED BLOOD CELLS: 0 /100WBC
  PLATELET COUNT: 907.5 x10E3/uL
  ALANINE AMINOTRANSFERASE: 58.5 u/L
  ALBUMIN: 4.4 G/DL
  ALKALINE PHOSPHATASE: 377.67 u/L
  ASPARTATE AMINOTRANSFERASE: 140.33 u/L
  BLOOD UREA NITROGEN: 15.33 mg/dL
  CARBON DIOXIDE: 32.17 mmol/L
  CHLORIDE: 100 MEQ/L
  CHOLESTEROL: 71.83 mg/dL
  CREATININE: 0.18 mg/dL
  GLUCOSE: 185 mg/dL
  LACTATE DEHYDROGENASE: 241.5 u/L
  LIPASE: 9.5 u/L
  PHOSPHORUS: 13.02 mg/dL
  POTASSIUM: 6.45 MEQ/L
  SODIUM: 143.45 MEQ/L
  TOTAL BILIRUBIN: 0.22 mg/dL
  TOTAL PROTEIN: 6.1 G/DL
  URIC ACID: 1 mg/dL
Rattus norvegicus [2]; […], time 14 day
  ABSOLUTE BASOPHIL: 0 CELLS/uL
  ABSOLUTE EOSINOPHIL: 117.17 CELLS/uL
  ABSOLUTE LYMPHOCYTE: 13562 CELLS/uL
  ABSOLUTE MONOCYTE: 534.83 CELLS/uL
  ABSOLUTE SEGMENTED NEUTROPHIL: 2486 CELLS/uL
  BASOPHIL: 0%
  EOSINOPHIL: 0.83%
  ERYTHROCYTE COUNT: 6.14 x10E6/uL
  HEMATOCRIT: 36.87%
  HEMOGLOBIN: 13.87 G/DL
  LEUKOCYTE COUNT: 16.7 x10E3/uL
  LYMPHOCYTE: 81%
  MEAN CORPUSCULAR HEMOGLOBIN: 22.63 pg
  MEAN CORPUSCULAR HEMOGLOBIN CONCENTRATION: 37.62 G/DL
  MEAN CORPUSCULAR VOLUME: 60.15 fL
  MONOCYTE: 3.17%
  NEUTROPHIL: 15%
  NUCLEATED RED BLOOD CELLS: 0 /100WBC
  PLATELET COUNT: 974.83 x10E3/uL
  ALANINE AMINOTRANSFERASE: 52.33 u/L
  ALBUMIN: 4.48 G/DL
  ALKALINE PHOSPHATASE: 346.17 u/L
  ASPARTATE AMINOTRANSFERASE: 81 u/L
  BLOOD UREA NITROGEN: 15.67 mg/dL
  CARBON DIOXIDE: 34.33 mmol/L
  CHLORIDE: 100.17 MEQ/L
  CHOLESTEROL: 70.83 mg/dL
  CREATININE: 0.22 mg/dL
  GLUCOSE: 141.17 mg/dL
  LACTATE DEHYDROGENASE: 121.33 u/L
  LIPASE: 8.33 u/L
  PHOSPHORUS: 9.97 mg/dL
  POTASSIUM: 6.4 MEQ/L
  SODIUM: 143.72 MEQ/L
  TOTAL BILIRUBIN: 0.22 mg/dL
  TOTAL PROTEIN: 6.45 G/DL
  URIC ACID: 1.25 mg/dL
